Measured values as given in US20240190871A1, “KRASG12D INHIBITOR, PREPARATION METHOD THEREFOR AND APPLICATION THEREOF” (YA THERAPEUTICS INC, priority 2021, published 2024).

How the values were obtained:
[1] = biological target: KRAS-G2D/SOS1 (Homo sapiens, UniProt P01116, G12D); experiment: KRAS-G2D/SOS1 binding experiment (HTRF); settings: His-tagged G12D protein and Tag1-SOS protein, room temperature
Protocol: • A) Dilute Tagged-His Tag G12D protein and Tag1-SOS protein with diluent at 1:100, and use detection buffer for anti-Tag1-Tb3+ antibody and anti-Tag2-XL665 at 1:100 or 1:25, respectively Dilute. • B) Dilute the compound to be tested with diluent starting from […] concentration, 4 times gradient, a total of 6 concentration gradients, and dilute to 10× stock solution. • C) In a 96-well plate, add 4 uL Tagged-His Tag G12D protein, 4 uL Tag1-SOS protein, 2 ul dilution solution (positive control) or test compound (different concentrations of 10× stock solution) to each well in sequence, a total of 10 ul, and incubate at room temperature for […], add pre-mixed 5 uL anti-Tag1-Tb3+ and 5 uL anti-Tag2-xL665, seal the plate, incubate at room temperature for 2 hours, and read the HTRF signal with a TECAN INFINITEF NANO+ microplate reader.
The ratio of […] and donor excitation signals for each single well was calculated using the formula ratio=665 nm signal value/620 nm signal value×[…]. Data were processed using Graphpadprism5 software. IC50 values were calculated by sigmoidal dose-response curve fitting.

[2] = test system: ATCC CRL-1739 (KRASG^12D mutant) cells; experiment: Tumor cell proliferation inhibition experiment (Cell Titer-Glo, 72 hours); assay type: cell-based; settings: 72 hours incubation, 10% fetal bovine serum, ATP content
Protocol: The ATCC CRL-1739 (KRASG^12D mutant) cells were digested, centrifuged and resuspended, and the cell density was measured with a Scepter automatic cell counter. The cells were diluted to a solution containing 44,000 cells per milliliter, and the density-adjusted cell solution was 90 per well. Microliters were added to a 96-well culture plate. The 96-well plate was placed in a 37° C., 5% CO2 incubator. After the cells were cultured for 24 hours, different concentrations of the compounds to be tested were added. The cells were incubated with the compounds for 72 hours in the presence of 10% fetal bovine serum. Glo Luminescent Cell Viability Assay Kit (see manufacturer's instructions for details) was used to measure ATP content to assess cell growth inhibition. Briefly, 30 μl of Cell Titer-Glo reagent was added to each well, and the plate was shaken for 10 minutes to induce cell lysis. FluoroskanAscentFL (Thermo) assay records the […], and the maximum signal value is obtained from cells treated with DMSO for 72 hours. The minimum signal value was obtained from the medium alone (the number of cells was zero), and the % inhibition rate=(the maximum signal value compound signal value)/(the maximum signal value−the minimum signal value×100%, and the data were processed using Graphpadprism 5 software. By sigmoid Dose-response curve fitting to calculate IC50 value. “A” means IC50≤50 nM; “B” means 50<IC50≤500 nM; “C” means 500<IC50≤2000 nM; “D” means 2000<IC50

Chain of KRAS-G2D/SOS1 (P01116 1-188 isoform P01116-2 G12D): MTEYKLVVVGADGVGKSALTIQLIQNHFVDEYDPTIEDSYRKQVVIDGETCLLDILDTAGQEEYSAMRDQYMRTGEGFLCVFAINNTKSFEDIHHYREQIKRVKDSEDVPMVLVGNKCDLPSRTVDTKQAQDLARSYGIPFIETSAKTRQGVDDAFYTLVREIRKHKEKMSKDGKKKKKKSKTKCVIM

`C[C@@H]1CNCCN1c1nc(NCCN(C)C)nc2nc(-c3c(O)cccc3F)c(F)cc12` [Compound 1, 2-(2-((2-(dimethylamino)ethyl)amino)-6-fluoro-4-((R)-2-methylpiperazin-1-yl)pyrido[2,3-d]pyrimidin-7-yl)-3-fluorophenol] was tested, and the IC50 [1] was > 500 nM and the IC50 [2] was > 2000 nM.

In the case of `C[C@@H]1CNCCN1c1nc(OC[C@@H]2CCCN2C)nc2nc(-c3c(O)cccc3F)c(F)cc12` [Compound 7, 3-fluoro-2-(6-fluoro-4-((R)-2-methylpiperazin-1-yl)-2-(((S)-1-methylpyrrolidin-2-yl)methoxy)pyrido [2,3-d]pyrimidin-7-yl)phenol], the IC50 [1] is reported as > 500 nM and the IC50 [2] is reported as > 2000 nM.

Compound `C[C@@H]1CNCCN1c1nc(OC[C@@H]2CCCN2C)nc2nc(-c3cccc4cccc(F)c34)c(F)cc12` [Compound 33, 6-fluoro-7-(8-fluoronaphthalen-1-y1)-4-((R)-2-methylpiperazin-1-y1)-2-(((S)-1-methylpyrrolidin-2-yl)methoxy)pyrido [2,3-d]pyrimidine] has an IC50 [1] of 50 to 500 nM and an IC50 [2] of 50 to 500 nM.

Compound `C[C@@H]1CNCCN1c1nc(OC[C@@H]2CCCN2C)nc2nc(-c3cccc4cccc(Cl)c34)c(F)cc12` [Compound 34, 7-(8-chloronaphthalen-1-yl)-6-fluoro-4-((R)-2-methylpiperazin-1-yl)-2-(((S)-1-methylpyrrolidin-2-yl)methoxy)pyrido [2,3-d]pyrimidine] has an IC50 [1] of 50 to 500 nM and an IC50 [2] of 500 to 2000 nM.

With `C[C@@H]1CNCCN1c1nc(OC[C@@H]2CCCN2C)nc2nc(-c3cc(O)cc4ccccc34)c(F)cc12` [Compound 36, 4-(6-fluoro-4-((R)-2-methylpiperazin-1-yl)-2-(((S)-1-methylpyrrolidin-2-yl)methoxy)pyrido [2,3-d]pyrimidin-7-yl)naphthalen-2-ol] the IC50 [1] was ≤ 50 nM and the IC50 [2] was > 2000 nM.

With `C[C@@H]1CNCCN1c1nc(OC[C@@H]2CCCN2C)nc2nc(-c3cc(O)cc4cccc(Cl)c34)c(F)cc12` [Compound 45, 5-chloro-4-(6-fluoro-4-((R)-2-methylpiperazin-1-yl)-2-(((S)-1-methylpyrrolidin-2-yl)methoxy)pyrido [2,3-d]pyrimidin-7-yl)naphthalen-2-ol] the IC50 [1] was ≤ 50 nM and the IC50 [2] was 50 to 500 nM.

With `C[C@@H]1CNCCN1c1nc(OC[C@@H]2CCCN2C)nc2nc(-c3cc(O)cc4cccc(F)c34)c(F)cc12` [Compound 46, 5-fluoro-4-(6-fluoro-4-((R)-2-methylpiperazin-1-yl)-2-(((S)-1-methylpyrrolidin-2-yl)methoxy)pyrido [2,3-d]pyrimidin-7-yl)naphthalen-2-ol] the IC50 [1] was ≤ 50 nM and the IC50 [2] was ≤ 50 nM.

For `Oc1cc(-c2nc3nc(OC[C@@]45CCCN4C[C@H](F)C5)nc(N4C5CNCC4C5)c3cc2F)c2c(F)cccc2c1` [Compound 54, 4-(4-(3,6-diazabicyclo [3.1.1]heptan-6-y1)-6-fluoro-2-(((2R,7aS)-2-fluorohexahydro-1H-pyrrolizin-7a-yl)methoxy)pyrido[2,3-d]pyrimidin-7-y1)-5-fluoronaphthalen-2-ol], the IC50 [1] was ≤ 50 nM and the IC50 [2] was ≤ 50 nM.

`Oc1cc(-c2nc3nc(OC[C@@]45CCCN4C[C@H](F)C5)cc(N4C[C@H]5CC[C@@H](C4)N5)c3cc2F)c2c(F)cccc2c1` [Compound 57, 4-(5-((1R,5S)-3,8-diazabicyclo[3.2.1]octan-3-yl)-3-fluoro-7-(((2R,7aS)-2-fluorohexahydro-1H-pyrrolizin-7a-yl)methoxy)-1,8-naphthyridin-2-yl)-5-fluoronaphthalen-2-ol] was tested, and the IC50 [1] was ≤ 50 nM and the IC50 [2] was ≤ 50 nM.

For `C#Cc1c(F)ccc2cc(O)cc(-c3nc4nc(OC[C@@]56CCCN5C[C@H](F)C6)nc(N5C[C@H]6CC[C@@H](C5)N6)c4cc3F)c12` [Compound 58, 4-(4-((1R,5S)-3,8-diazabicyclo[3.2.1]octan-3-yl)-6-fluoro-2-(((2R,7aS)-2-fluorotetrahydro-1H-pyrrolizin-7a(5H)-yl)methoxy)pyrido[2,3-d]pyrimidin-7-yl)-5-ethynyl-6-fluoronaphthalen-2-ol], the IC50 [1] was ≤ 50 nM and the IC50 [2] was ≤ 50 nM.

With `CCc1c(F)ccc2cc(O)cc(-c3nc4nc(OC[C@@]56CCCN5C[C@H](F)C6)nc(N5C[C@H]6CC[C@@H](C5)N6)c4cc3F)c12` [Compound 59, 4-(4-((1R,5S)-3,8-diazabicyclo[3.2.1]octan-3-yl)-6-fluoro-2-(((2R,7aS)-2-fluorotetrahydro-1H-pyrrolizin-7a(5H)-yl)methoxy)pyrido[2,3-d]pyrimidin-7-yl)-5-ethyl-6-fluoronaphthalen-2-ol] the IC50 [2] was ≤ 50 nM.
